Experimental data published in patent US9113629B2, “4-amino-6-(4-substituted-phenyl)-picolinates and 6-amino-2-(4-substituted-phenyl)-pyrimidine-4-carboxylates and their use as herbicides” (DOW AGROSCIENCES LLC, priority 2013, dated 2015).

How the values were obtained:
[1] = test system: KCHSC: kochia (Kochia scoparia); assay: Post-emergent Test III, herbicidal activity in wheat and barley; assay type: in vivo; conditions: for pest or weed control at 35 g/ha / pest or weed control at 70 g/ha / pest or weed control at 140 g/ha: Bassia scoparia, post-emergence, 504 h, read-out: Visual Growth Reduction (%) 21 Days After Application KCHSC; for pest or weed control at 35 g/ha: 35 g ai/ha; for pest or weed control at 70 g/ha: 70 g ai/ha; for pest or weed control at 140 g/ha: 140 g ai/ha; for GR50 KCHSC / GR80 KCHSC: probit analysis, 21 days after application; for GR50 KCHSC: dose for growth reduction of 50 percent; for GR80 KCHSC: dose for growth reduction of 80 percent
Method in brief: (§1)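 Plants at the second to third true-leaf stage, grown in a greenhouse at about 18/17 °C with a 14 h photoperiod, were sprayed post-emergence at 187 L/ha with the high rate and ½× to 1/16× serial dilutions in an acetone/DMSO/crop-oil/surfactant carrier. Injury was rated visually at 21 d on a 0–100% scale, and GR20–GR90 were derived by probit analysis.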

[2] = test system: APESV: bentgrass (Apera spica-venti); assay: as above; assay type: in vivo; conditions: for pest or weed control at 35 g/ha / pest or weed control at 70 g/ha / pest or weed control at 140 g/ha: Apera spica-venti, post-emergence, 504 h, read-out: Visual Growth Reduction (%) 21 Days After Application APESV; for pest or weed control at 35 g/ha: 35 g ai/ha; for pest or weed control at 70 g/ha: 70 g ai/ha; for pest or weed control at 140 g/ha: 140 g ai/ha; for GR50 APESV / GR80 APESV: probit analysis, 21 days after application; for GR50 APESV: dose for growth reduction of 50 percent; for GR80 APESV: dose for growth reduction of 80 percent
Method in brief: as §1

[3] = test system: LOLSS: ryegrass including, Italian ryegrass (Lolium multiflorum), rigid ryegrass (Lolium rigidum), annual ryegrass (Lolium multiflorum subsp. Gaudini); assay: as above; assay type: in vivo; conditions: probit analysis, 21 days after application
Method in brief: as §1

[4] = as above; assay type: in vivo, Lolium multiflorum, Lolium rigidum; conditions: Lolium multiflorum, post-emergence, 504 h, read-out: Visual Growth Reduction (%) 21 Days After Application LOLSS; for pest or weed control at 35 g/ha: 35 g ai/ha; for pest or weed control at 70 g/ha: 70 g ai/ha; for pest or weed control at 140 g/ha: 140 g ai/ha
Method in brief: as §1

[5] = test system: MATSS: scented mayweed (Matricaria chamomilla), pineappleweed (Matricaria matricarioides); assay: as above; assay type: in vivo; conditions: for pest or weed control at 35 g/ha / pest or weed control at 70 g/ha / pest or weed control at 140 g/ha: Matricaria chamomilla, post-emergence, 504 h, read-out: Visual Growth Reduction (%) 21 Days After Application MATSS; for pest or weed control at 35 g/ha: 35 g ai/ha; for pest or weed control at 70 g/ha: 70 g ai/ha; for pest or weed control at 140 g/ha: 140 g ai/ha; for GR50 MATSS / GR80 MATSS: probit analysis, 21 days after application; for GR50 MATSS: dose for growth reduction of 50 percent; for GR80 MATSS: dose for growth reduction of 80 percent
Method in brief: as §1

Structure (SMILES) | pest or weed control at 35 g/ha [1] [%] | pest or weed control at 70 g/ha [1] [%] | pest or weed control at 140 g/ha [1] [%] | GR50 KCHSC [1] [g ai/ha] | GR80 KCHSC [1] [g ai/ha] | pest or weed control at 35 g/ha [2] [%] | pest or weed control at 70 g/ha [2] [%] | pest or weed control at 140 g/ha [2] [%] | GR50 APESV [2] [g ai/ha] | GR80 APESV [2] [g ai/ha] | GR50 LOLSS ([3]; dose for growth reduction of 50 percent) [g ai/ha] | GR80 LOLSS ([3]; dose for growth reduction of 80 percent) [g ai/ha] | pest or weed control at 35 g/ha [4] [%] | pest or weed control at 70 g/ha [4] [%] | pest or weed control at 140 g/ha [4] [%] | pest or weed control at 35 g/ha [5] [%] | pest or weed control at 70 g/ha [5] [%] | pest or weed control at 140 g/ha [5] [%] | GR50 MATSS [5] [g ai/ha] | GR80 MATSS [5] [g ai/ha]
COC(=O)c1nc(-c2ccc(F)c(F)c2F)c(F)c(N)c1Cl [Compound 186] | 60 to 74 | 60 to 74 | 60 to 74 | 1 | >140 | 0 to 29 | 0 to 29 | 0 to 29 | >140 | >140 | >140 | >140 | 0 to 29 | 0 to 29 | 0 to 29 | 0 to 29 | 0 to 29 | 0 to 29 | >140 | >140
COC(=O)c1nc(-c2ccc(F)cc2)c(F)c(N)c1Cl [Compound 204] | 85 to 94 | 95 to 100 | 95 to 100 | 2 | 9 | 0 to 29 | 30 to 44 | 60 to 74 | 106 | >140 | – | – | 0 to 29 | 0 to 29 | 0 to 29 | 0 to 29 | 0 to 29 | 0 to 29 | >140 | >140
